For three molecules, Activity and Ki results are on record in ChEMBL document CHEMBL1153880, “Synthesis and adrenolytic activity of 1-(1H-indol-4-yloxy)-3-{[2-(2-methoxyphenoxy)ethyl]amino}propan-2-ol and its enantiomers. Part 1” (Eur J Med Chem, 2009).

Experiment [1] relates to Rattus norvegicus. The experiment can be described thus: Effect on electrocardiogram in anaesthetized Wistar rat assessed as change in Q-T interval at 1 mg/kg, iv after 1 min by electrocardiography. Type of experiment: functional.
Experiment [2] addresses T1, Adrenergic receptor alpha-2 (Rattus norvegicus, UniProt P22086+P19328+P22909).
T1 sequence (P22086 whole entry): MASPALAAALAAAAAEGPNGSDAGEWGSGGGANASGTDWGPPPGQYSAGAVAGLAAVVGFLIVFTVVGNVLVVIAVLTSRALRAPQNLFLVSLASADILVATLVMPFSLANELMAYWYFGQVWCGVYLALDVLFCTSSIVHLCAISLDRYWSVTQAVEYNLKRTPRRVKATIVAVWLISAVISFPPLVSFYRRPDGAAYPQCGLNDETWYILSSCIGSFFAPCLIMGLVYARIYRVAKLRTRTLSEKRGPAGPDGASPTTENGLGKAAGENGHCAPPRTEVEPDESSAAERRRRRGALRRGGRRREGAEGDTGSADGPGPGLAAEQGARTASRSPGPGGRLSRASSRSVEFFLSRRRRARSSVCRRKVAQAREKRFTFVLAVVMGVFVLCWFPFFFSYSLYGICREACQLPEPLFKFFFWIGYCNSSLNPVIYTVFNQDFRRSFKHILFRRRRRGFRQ
T1 sequence (P19328 whole entry): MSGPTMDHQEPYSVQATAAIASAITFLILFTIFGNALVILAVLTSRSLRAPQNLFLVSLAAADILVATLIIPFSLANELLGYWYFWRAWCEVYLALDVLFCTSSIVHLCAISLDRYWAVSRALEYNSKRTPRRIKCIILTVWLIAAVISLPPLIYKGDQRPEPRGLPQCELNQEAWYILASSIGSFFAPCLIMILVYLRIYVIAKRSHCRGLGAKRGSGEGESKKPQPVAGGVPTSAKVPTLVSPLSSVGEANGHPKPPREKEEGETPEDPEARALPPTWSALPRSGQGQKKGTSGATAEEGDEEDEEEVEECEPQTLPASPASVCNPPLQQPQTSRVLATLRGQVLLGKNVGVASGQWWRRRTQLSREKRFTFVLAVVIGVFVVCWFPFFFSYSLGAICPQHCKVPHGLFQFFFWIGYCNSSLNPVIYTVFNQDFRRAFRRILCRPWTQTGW
T1 sequence (P22909 whole entry): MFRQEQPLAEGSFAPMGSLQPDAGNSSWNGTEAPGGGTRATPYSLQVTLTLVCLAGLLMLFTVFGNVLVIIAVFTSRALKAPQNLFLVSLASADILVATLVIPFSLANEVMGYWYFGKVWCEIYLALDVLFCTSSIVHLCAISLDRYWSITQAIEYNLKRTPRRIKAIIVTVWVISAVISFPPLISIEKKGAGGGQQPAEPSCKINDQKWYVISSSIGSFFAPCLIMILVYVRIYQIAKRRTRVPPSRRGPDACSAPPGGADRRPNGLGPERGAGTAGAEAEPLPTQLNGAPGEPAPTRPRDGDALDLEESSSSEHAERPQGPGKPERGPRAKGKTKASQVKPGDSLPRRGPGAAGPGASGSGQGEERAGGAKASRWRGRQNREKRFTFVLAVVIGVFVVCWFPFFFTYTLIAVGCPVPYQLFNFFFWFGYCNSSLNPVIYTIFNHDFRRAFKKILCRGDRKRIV
The experiment can be described thus: Displacement of [3H]clonidine from alpha2 adrenergic receptor in rat cerebral cortex by liquid scintillation method. Type of experiment: tissue-based.

Experiment [3] relates to Rattus norvegicus. The experiment can be described thus: Effect on heart rate in anaesthetized Wistar rat assessed as number of beats per minute at 1 mg/kg, iv after 15 mins by electrocardiography. Type of experiment: functional.
For experiment [4], the target named is T2, Adrenergic receptor alpha-1 (Rattus norvegicus, UniProt P15823+P23944+P43140).
T2 sequence (P15823 whole entry): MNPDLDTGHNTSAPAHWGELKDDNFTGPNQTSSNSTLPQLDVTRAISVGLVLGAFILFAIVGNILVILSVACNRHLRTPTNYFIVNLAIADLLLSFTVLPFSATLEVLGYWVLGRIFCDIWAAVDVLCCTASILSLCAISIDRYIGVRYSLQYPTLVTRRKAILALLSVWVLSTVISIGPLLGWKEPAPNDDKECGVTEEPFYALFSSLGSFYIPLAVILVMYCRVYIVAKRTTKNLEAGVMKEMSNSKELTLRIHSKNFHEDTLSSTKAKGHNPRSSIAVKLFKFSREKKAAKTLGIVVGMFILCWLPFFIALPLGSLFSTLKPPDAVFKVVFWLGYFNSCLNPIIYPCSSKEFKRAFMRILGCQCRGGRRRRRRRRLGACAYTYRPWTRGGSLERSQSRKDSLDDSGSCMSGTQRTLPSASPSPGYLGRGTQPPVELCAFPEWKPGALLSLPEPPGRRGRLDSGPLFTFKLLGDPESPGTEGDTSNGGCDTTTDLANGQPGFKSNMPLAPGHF
T2 sequence (P23944 whole entry): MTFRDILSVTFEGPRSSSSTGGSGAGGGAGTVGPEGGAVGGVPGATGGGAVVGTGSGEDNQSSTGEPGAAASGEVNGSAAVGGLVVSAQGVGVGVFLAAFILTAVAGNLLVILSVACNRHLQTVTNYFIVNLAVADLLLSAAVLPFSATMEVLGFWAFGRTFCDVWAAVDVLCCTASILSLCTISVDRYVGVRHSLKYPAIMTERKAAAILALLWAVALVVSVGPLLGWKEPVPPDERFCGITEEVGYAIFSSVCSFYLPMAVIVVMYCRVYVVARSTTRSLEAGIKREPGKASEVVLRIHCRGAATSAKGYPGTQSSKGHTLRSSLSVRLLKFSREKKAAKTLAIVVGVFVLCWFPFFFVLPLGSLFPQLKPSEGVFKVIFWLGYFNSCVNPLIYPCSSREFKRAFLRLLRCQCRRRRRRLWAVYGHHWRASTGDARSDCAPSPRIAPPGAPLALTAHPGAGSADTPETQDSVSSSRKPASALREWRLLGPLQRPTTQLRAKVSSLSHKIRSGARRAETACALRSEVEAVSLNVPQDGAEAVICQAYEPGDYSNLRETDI
T2 sequence (P43140 whole entry): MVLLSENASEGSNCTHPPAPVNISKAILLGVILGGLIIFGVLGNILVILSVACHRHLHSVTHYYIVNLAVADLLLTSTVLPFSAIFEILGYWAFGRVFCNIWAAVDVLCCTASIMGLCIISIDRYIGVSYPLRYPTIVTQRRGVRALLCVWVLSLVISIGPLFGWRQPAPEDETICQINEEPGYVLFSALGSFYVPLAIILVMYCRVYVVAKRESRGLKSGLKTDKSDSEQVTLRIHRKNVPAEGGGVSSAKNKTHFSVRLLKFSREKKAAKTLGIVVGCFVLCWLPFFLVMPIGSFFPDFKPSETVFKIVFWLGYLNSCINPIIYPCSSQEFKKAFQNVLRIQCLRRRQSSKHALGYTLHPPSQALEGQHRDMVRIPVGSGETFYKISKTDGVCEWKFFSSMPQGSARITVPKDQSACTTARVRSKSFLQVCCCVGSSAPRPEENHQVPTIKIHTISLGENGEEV
The experiment can be described thus: Displacement of [3H]prazosin from alpha1 adrenergic receptor in rat cerebral cortex by liquid scintillation method. It counts as tissue-based.

For experiment [5], the system named is Rattus norvegicus. The experiment can be described thus: Effect on electrocardiogram in anaesthetized Wistar rat assessed as change in Q-T interval at 1 mg/kg, iv after 15 mins by electrocardiography. Type of experiment: functional.

Turning to `COc1ccccc1OCCNC[C@@H](O)COc1cccc2[nH]ccc12`, the figures for the Activity with Rattus norvegicus [1], with Rattus norvegicus [3] and with Rattus norvegicus [5] were 63 ms, 298 min⁻¹ and 62.8 ms, respectively. Also, the Ki in experiment [2] is 0.4673 µM; in experiment [4], 0.0883 µM.
The corresponding values for `COc1ccccc1OCCNCC(O)COc1cccc2[nH]ccc12` (racemic) are 69.2 ms, 287.3 min⁻¹, 72.8 ms, 0.0014 µM and 0.0898 µM.
The corresponding values for `COc1ccccc1OCCNC[C@H](O)COc1cccc2[nH]ccc12` are 72.3 ms, 304.2 min⁻¹, 72 ms, 0.3655 µM and 0.0567 µM.
